Laboratory results as given in patent publication US20240132498A1, “CRYSTALLINE FORMS OF 5-(3,4-DIFLUOROBENZYL)-8-((1R,4R)-4-METHYLCYCLOHEXYL)-6,9-DIOXO-2,5,8-TRIAZASPIRO[3.5]NONANE-2-CARBALDEHYDE” (Cytokinetics, Incorporated, priority 2022, published 2024).

How the values were obtained:
[1] = Monkey single dose pharmacokinetics; type: in vivo; conditions: male, plasma, iv, Cynomolgus Monkey; for Vd: read-out: Vss
Experimental: Non-naïve Male Cynomolgus Monkey (2-5 years of age, body weight 2-5 kg) used in this study were obtained from Topgene Biotechnology. All animals for IV administration had free access to food and water; all animals for PO were fasted overnight prior to dosing and were fed approximately 6 hours after dosing. The IV dose solution was prepared in 10% DMA/50% PG/40% HPOCD solution (40% w/v aqueous HPOCD) at a concentration of 1.0 mg/mL. The oral dose suspension was prepared by suspending the compound in 0.5% HPMC/0.1% Tween 80 in distilled water at a concentration of 0.2 mg/mL. Concentrations of IV and PO doses were measured at the end of the study. PK parameters were calculated using the nominal dose values if the measured values were within 20% of the nominal values. Blood samples were collected by venipuncture of peripheral veins except the dosing vein at pre-dose, 5 15, 30 min, 1, 2, 4, 6, 8, 24 and 48 h post-dose. Blood samples were centrifuged and resultant plasma was frozen for bioanalysis. Plasma samples were stored at −80° C. before analysis. Plasma samples were analyzed for compound concentrations using the LC/MS/MS method. Briefly, a 50 μL aliquot of each plasma sample was mixed with 100 μL of acetonitrile that contained an internal standard. The mixture was vortexed and centrifuged. Ten (10) p L of the resulting solution was injected onto a reverse-phase C18 column and the resultant peaks detected on a LC/MS/MS equipped with a turbo ionspray ionization source. Sample concentrations below the limit of quantification (BLQ) were treated as zero for PK calculations. PK parameters were estimated from individual animals using noncompartmental analysis of the concentration-time data (Phoenix WinNonLin software, version 64; Pharsight, Mountain View, CA). The elimination rate constant (k) was calculated as the absolute value of the slope of the linear regression of logarithm (log) of the concentration versus time for the last three data points of the concentration-time profiles. Apparent elimination half-life (t½) values were calculated as 1n(2)/k. Area under the concentration-time curve (AUC) values were estimated using linear trapezoidal method. AUC values were calculated from the dosing time to the last measurable concentration. AUC∞ values were calculated as the sum of the corresponding AUC and the ratio of the last detectable concentration divided by k. Plasma clearance (CL) was calculated from Dose/AUC.. Mean resident time extrapolated to infinity (MRT∞) was estimated by moment analysis. Vss was calculated from MRT. X CL. Maximum concentration (Cmax) and time to reach Cmax (tmax) were recorded as observed. As this was a cross-over study, bioavailability was calculated dAUC∞,po/dAUC∞,iv ×100% where dAUC was the dose normalized AUC value from the same animal given IV and PO dose. Compounds tested were prepared in accordance with the synthetic procedures described herein.

[2] = molecular target: T1, bovine cardiac myofibrils (Bos taurus, UniProt Q9BE39); experiment: Skinned bovine cardiac myofibril ATPase assay (PK/LDH-coupled); type: biochemical; conditions: bovine cardiac myofibril ATPase activity; Ca2+ for 50% or 75% activation
T1 construct: full-length cardiac myosin in the context of the native sarcomere; from tissue; host or cells: bovine cardiac left ventricular tissue, detergent-skinned myofibrils
T1 sequence (Q9BE39 whole entry): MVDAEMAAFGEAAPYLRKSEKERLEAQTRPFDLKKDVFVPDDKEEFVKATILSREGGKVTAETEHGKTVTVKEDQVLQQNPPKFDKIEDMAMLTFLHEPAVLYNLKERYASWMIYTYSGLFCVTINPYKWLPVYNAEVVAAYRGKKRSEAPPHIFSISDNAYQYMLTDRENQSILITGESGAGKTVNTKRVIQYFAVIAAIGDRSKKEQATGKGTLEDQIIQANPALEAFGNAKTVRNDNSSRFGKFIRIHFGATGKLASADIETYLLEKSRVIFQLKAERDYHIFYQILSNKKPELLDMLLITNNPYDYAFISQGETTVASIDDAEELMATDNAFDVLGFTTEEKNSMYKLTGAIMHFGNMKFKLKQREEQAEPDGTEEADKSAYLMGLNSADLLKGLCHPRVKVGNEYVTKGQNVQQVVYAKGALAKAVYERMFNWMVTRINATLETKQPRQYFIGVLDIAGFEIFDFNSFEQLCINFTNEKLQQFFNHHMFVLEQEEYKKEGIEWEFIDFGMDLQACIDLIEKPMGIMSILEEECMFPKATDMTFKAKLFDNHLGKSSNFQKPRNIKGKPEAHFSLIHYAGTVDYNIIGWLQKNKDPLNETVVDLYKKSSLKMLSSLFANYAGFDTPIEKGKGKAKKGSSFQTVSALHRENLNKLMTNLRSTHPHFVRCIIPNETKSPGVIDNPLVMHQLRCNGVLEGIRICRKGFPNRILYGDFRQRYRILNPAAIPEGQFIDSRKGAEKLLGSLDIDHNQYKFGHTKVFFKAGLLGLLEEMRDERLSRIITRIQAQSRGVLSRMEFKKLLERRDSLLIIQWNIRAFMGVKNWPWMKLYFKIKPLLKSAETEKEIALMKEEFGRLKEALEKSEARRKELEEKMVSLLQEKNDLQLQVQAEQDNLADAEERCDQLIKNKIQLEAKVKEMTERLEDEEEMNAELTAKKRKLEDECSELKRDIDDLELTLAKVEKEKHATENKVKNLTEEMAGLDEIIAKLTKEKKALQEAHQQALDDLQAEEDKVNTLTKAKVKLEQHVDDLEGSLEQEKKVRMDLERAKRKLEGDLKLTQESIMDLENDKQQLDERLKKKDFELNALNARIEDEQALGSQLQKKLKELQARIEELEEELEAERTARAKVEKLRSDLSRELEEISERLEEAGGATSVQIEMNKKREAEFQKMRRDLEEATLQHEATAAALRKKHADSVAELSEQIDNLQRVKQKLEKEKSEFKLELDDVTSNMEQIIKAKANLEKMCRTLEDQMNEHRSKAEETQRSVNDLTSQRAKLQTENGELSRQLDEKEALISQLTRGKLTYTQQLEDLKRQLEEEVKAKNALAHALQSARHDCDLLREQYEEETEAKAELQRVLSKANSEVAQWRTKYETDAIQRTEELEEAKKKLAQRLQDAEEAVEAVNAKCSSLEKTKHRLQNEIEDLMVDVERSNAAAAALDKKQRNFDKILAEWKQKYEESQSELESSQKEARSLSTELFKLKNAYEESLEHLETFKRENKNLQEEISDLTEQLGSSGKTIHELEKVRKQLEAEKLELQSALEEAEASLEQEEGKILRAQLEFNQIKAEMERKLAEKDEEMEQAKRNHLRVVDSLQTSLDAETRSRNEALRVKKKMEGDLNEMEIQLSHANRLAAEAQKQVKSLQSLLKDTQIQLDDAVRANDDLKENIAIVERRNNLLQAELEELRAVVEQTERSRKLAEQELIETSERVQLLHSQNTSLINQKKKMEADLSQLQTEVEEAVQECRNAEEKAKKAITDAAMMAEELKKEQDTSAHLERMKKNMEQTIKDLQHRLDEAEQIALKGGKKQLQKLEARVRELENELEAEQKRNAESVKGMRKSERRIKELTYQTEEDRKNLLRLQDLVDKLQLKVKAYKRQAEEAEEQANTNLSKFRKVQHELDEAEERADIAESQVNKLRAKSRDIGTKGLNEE
T1 sequence (P85100 whole entry partner): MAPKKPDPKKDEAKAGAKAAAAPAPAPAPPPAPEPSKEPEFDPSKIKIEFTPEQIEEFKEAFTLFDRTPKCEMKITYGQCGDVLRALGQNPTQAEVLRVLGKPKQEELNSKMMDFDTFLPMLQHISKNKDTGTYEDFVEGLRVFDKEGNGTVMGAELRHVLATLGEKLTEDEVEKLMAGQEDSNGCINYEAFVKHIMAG
T1 sequence (Q3SZE5 whole entry partner): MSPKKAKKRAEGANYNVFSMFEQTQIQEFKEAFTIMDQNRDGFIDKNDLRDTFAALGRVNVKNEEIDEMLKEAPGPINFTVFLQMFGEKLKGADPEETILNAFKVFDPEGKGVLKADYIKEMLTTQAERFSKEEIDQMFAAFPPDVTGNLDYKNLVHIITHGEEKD
Experimental: To evaluate the effect of the compound 5-(3,4-difluorobenzyl)-8-((1r,4r)-4-methylcyclohexyl)-6,9-dioxo-2,5,8-triazaspiro[3.5]nonane-2-carbaldehyde on the ATPase activity of full-length cardiac myosin in the context of the native sarcomere, skinned myofibril assays were performed. Bovine cardiac myofibrils were obtained by homogenizing bovine cardiac left ventricular tissue in the presence of a detergent such as triton X-100. Such treatment removes membranes and a majority of the soluble cytoplasmic proteins but leaves intact the cardiac sarcomeric acto-myosin apparatus. Myofibril preparations retain the ability to hydrolyze ATP in a Ca^2+ regulated manner. ATPase activities of such myofibril preparations in the presence and absence of the compound 5-(3,4-difluorobenzyl)-8-((1r,4r)-4-methylcyclohexyl)-6,9-dioxo-2,5,8-triazaspiro[3.5]nonane-2-carbaldehyde was assayed at Ca^2+ concentrations activating to a defined fraction of the maximal rate (i.e., […], 75%). The compound 5-(3,4-difluorobenzyl)-8-((1r,4r)-4-methylcyclohexyl)-6,9-dioxo-2,5, 8-triazaspiro [3.5]nonane-2-carbaldehyde was assessed for its ability to inhibit the steady-state ATPase activity of bovine cardiac myofibrils using pyruvate kinase and lactate dehydrogenase (PK/LDH)-coupled enzyme system. This assay regenerates myosin-produced ADP into ATP by oxidizing NADH, producing an absorbance change at 340 nm. Prior to testing this compound, the bovine cardiac myofibrils were assessed for their calcium responsiveness and the calcium concentration that achieves either a 50% (pCa50) or 75% (pCa75) activation of the myofibril system was chosen as the final condition for assessing the inhibitory activity of this compound. All enzymatic activity was measured in a buffered solution containing 12 mM PIPES (piperazine-N,N′-bis(2-ethanesulfonic acid), 2 mM magnesium chloride at pH 6.8 (PM 12 buffer). Final assay conditions were 1 mg/mL of bovine cardiac myofibrils, 4 U/mL pyruvate kinase, 6 U/mL lactate dehydrogenase, 50 μM ATP, 0.1 mg/mL BSA (bovine serum albumin), 10 ppm antifoam, 1 mM DTT, 0.5 mM NADH, 1.5 mM PEP, 0.6 mM EGTA, and an amount of CaCl2) sufficient to achieve either 50% or 75% activation of the myofibril ATPase activity. The compound tested was prepared in accordance with the synthetic procedures described herein.

CYP3A4 = molecular target: T2, CYP3A4 (Homo sapiens, UniProt P08684); experiment: Time-dependent inhibition of CYP450 enzymes in human liver microsomes: CYP3A4-M (midazolam probe); type: in vitro ADME; conditions: human, pooled human liver microsomes, CYP3A4-M (midazolam probe); for activity at 30 min, 25 µM / activity at 30 min, 50 µM: 30 minutes incubation, read-out: % Activity NADPH T30; for activity at 0 min, 25 µM / activity at 0 min, 50 µM: time zero, read-out: % Activity NADPH T0
T2 construct: from tissue; host or cells: pooled human liver microsomes
T2 sequence (P08684 whole entry): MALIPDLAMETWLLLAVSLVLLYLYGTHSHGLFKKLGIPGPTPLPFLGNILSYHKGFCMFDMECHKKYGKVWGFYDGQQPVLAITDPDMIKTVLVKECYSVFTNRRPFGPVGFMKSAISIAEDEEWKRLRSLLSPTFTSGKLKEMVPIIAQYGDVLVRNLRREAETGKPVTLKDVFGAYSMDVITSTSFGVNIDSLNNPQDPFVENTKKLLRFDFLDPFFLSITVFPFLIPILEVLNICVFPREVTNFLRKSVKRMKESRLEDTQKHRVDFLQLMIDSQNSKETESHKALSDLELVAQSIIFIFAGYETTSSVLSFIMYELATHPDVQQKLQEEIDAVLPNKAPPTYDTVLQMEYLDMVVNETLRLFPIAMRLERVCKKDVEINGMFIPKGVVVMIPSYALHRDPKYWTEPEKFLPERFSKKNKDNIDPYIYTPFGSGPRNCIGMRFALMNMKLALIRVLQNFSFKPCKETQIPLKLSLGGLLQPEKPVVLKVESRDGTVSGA
Experimental: An assessment of the time-dependent Inhibitory Potential of the test compounds against Principal Human Cytochrome P450 Isozymes using Human Liver Microsomes was also carried out using standard methods (Grimm et al, Drug Metab. Dispos., Jul; 37(7):1355-70. doi: 10.1124/dmd.109.026716, 2009). Pooled human microsomes and selective CYP probe substrates were used for in vitro assessment of test compounds at 25 and 50 μM as time-dependent inhibitors of […] human hepatic cytochrome P450 isozymes (CYP1A2, 2B6, 2C9, 2C19, 2D6, and 3A4). LC-MS/MS was used to quantify metabolite formation. The inhibition of each P450 enzyme in human liver microsomes was measured as the percentage decrease in the activity of marker metabolite formation as measured by LC-MS/MS compared to non-inhibited controls (=100% activity) at time zero and after 30 minutes incubation. The occurrence of any time dependent inhibition was then expressed as the fold change in enzyme activity at time zero relative to the activity after 30 minutes incubation. The time dependent inhibition for the compound 5-(3,4-difluorobenzyl)-8-((1 r,4r)-4-methylcyclohexyl)-6,9-dioxo-2,5, 8-triazaspiro [3.5]nonane-2-carbaldehyde (Compound 1) against CYP1A2, […], CYP2C8, CYP2C9, CYP2C19, CYP2D6, CYP3A4-M and CYP3A4-T is shown in Table B-12.

For `O=CN1CC2(C1)C(=O)N([C@H]1CC[C@H](C(F)F)CC1)CC(=O)N2Cc1ccc(C(F)(F)F)cc1` [Comparator E, 8-((1r,4r)-4-(difluoromethyl)cyclohexyl)-6,9-dioxo-5-(4-(trifluoromethyl)benzyl)-2,5,8-triazaspiro[3.5]nonane-2-carbaldehyde], the clearance [1] was 3.4 mL/min/kg, the half-life [1] was 16 h and the Vd [1] was 4.35 L/kg. For the same molecule, the “CDMF IC15” value [2] was 1300 nM.

`C[C@H]1CC[C@H](N2CC(=O)N(Cc3ccc(F)c(F)c3)C3(CN(C=O)C3)C2=O)CC1` [Compound 1, 5-(3,4-difluorobenzyl)-8-((1r,4r)-4-methylcyclohexyl)-6,9-dioxo-2,5,8-triazaspiro[3.5]nonane-2-carbaldehyde] showed a clearance [1] of 11.6 mL/min/kg, a half-life [1] of 9.94 h and a Vd [1] of 8.89 L/kg. It also gave an activity at 30 min, 25 µM (CYP3A4) of 88%, an activity at 0 min, 25 µM (CYP3A4) of 70% and an activity at 30 min, 50 µM (CYP3A4) of 78%. The activity at 0 min, 50 µM (CYP3A4) was 57% and the “CDMF IC15” value [2] was 1500 nM.

Molecule `O=C1[C@H](C2COC2)N(Cc2ccc(C(F)(F)F)cc2)C(=O)CN1c1ncc(Cl)cc1F` [Comparator C, (S)-1-(5-chloro-3-fluoropyridin-2-yl)-3-(oxetan-3-yl)-4-(4-(trifluoromethyl)benzyl)piperazine-2,5-dione, reference compound] has a clearance [1] of 13.8 mL/min/kg, a half-life [1] of 11.6 h and a Vd [1] of 12 L/kg. It also gave an activity at 30 min, 25 µM (CYP3A4) of 48%, an activity at 0 min, 25 µM (CYP3A4) of 75% and an activity at 30 min, 50 µM (CYP3A4) of 33%. The activity at 0 min, 50 µM (CYP3A4) was 57% and the “CDMF IC15” value [2] was 1100 nM.

Work on `CC(=O)N1CC2(C1)C(=O)N(c1ccc(C#N)cc1F)CC(=O)N2Cc1ccc(C(F)(F)F)cc1` [Comparator D, 4-(2-acetyl-6,9-dioxo-5-(4-(trifluoromethyl)benzyl)-2,5,8-triazaspiro[3.5]nonan-8-yl)-3-fluorobenzonitrile] yielded a clearance [1] of 6.92 mL/min/kg, a half-life [1] of 18.1 h and a Vd [1] of 12.4 L/kg. For the same molecule, the “CDMF IC15” value [2] was 1100 nM.

For `O=CN1CC2(C1)C(=O)N(c1ccc(F)cc1F)CC(=O)N2Cc1ccc(Cl)cc1` [Comparator A, 5-(4-chlorobenzyl)-8-(2,4-difluorophenyl)-6,9-dioxo-2,5,8-triazaspiro[3.5]nonane-2-carbaldehyde], the “CDMF IC15” value [2] was 1800 nM.
